Earlier results, collected in patent US20250320459A1, “FUNCTIONALIZED MOLECULAR LAYERS AND SCAFFOLDS, AND METHODS OF PREPARATION AND USE THEREOF” (PURDUE RESEARCH FOUNDATION, priority 2022, published 2025).

Biological target: WGA

KD, monovalent interactions between WGA and GlcNAc (monovalent): micromolar to millimolar range
KD, multivalent interactions between WGA and GlcNAc (multivalent): nanomolar range
Structure (SMILES): CC(=O)N[C@H]1C(O)O[C@H](CO)[C@@H](O)[C@@H]1O (stereo partly drawn) [GlcNAc, N-acetyl-D-glucosamine]
